{"source": "paper PMC3984256", "about": "“A PCNA-Derived Cell Permeable Peptide Selectively Inhibits Neuroblastoma Cell Growth” (PLoS ONE, 2014)", "key": {"SK-N-BE(2)c cells [1]": {"system": "SK-N-BE(2)c cells", "assay": "Cell cycle analysis by PI flow cytometry, SK-N-BE(2)c", "type": "cell-based, human", "procedure": "Cells were seeded at 1×10^5/ml. Once attached, cells were treated with or without R9-caPep for 48 hours. Cells were fixed in 60% ethanol and stained with propidium iodide (PI). The cellular PI fluorescence intensity was determined by flow cytometry. The flow cytometry data were analyzed by the FlowJo program to model various cell populations."}, "[2]": {"system": "PCNA and POLD3 co-localization in SK-N-AS NB cells", "assay": "PCNA/POLD3 co-localization, immunofluorescence", "type": "cell-based, human", "settings": "synchronized, 30 µM peptide 6 h after mimosine release", "procedure": "(§1) Cells were seeded at 1×10^5/ml onto a chamber slide and were allowed to attach overnight. To analyze the interaction of PCNA with FEN1, LIGI, or Pol ä, we first synchronize cells at the G1/S boundary. The synchronization is achieved by starving cells in medium containing 0.25% FBS for 24 h. Cells were further cultured in the complete medium containing 400 µM of mimosine for 24 h. To release cells into S phase, cells were washed and incubated in mimosine-free medium containing 30 µM R9-caPep or R9-srbPep for 6 h. We pre-determined that the majority of cells were in the S-phase 6 h after mimosine was removed (data not shown). Cells were fixed in ice-cold methanol:acetone (50%:50%) for 10 min or in 4% paraformaldehyde for 20 min at room temperature. Cells were incubated with a goat polyclonal anti-PCNA antibody (Santa Cruz) and a mouse monoclonal anti-FEN1 antibody (Santa Cruz), a mouse anti-POLD3 antibody (Sigma, St. Louis, MO), or a mouse anti-LIGI antibody (Abcam, Cambridge, MA) for 1 h at room temperature. After being washed with PBS, cells were incubated with Alexa Fluor 488 conjugated anti-mouse IgG and Alexa Fluor 555 conjugated anti-goat IgG antibodies (Invitrogen, Grand Island, NY) for 1 h. Cells were mounted in Vectashield with DAPI (Vector Labs, Burlingame, CA) and visualized by a confocal microscope."}, "SK-N-BE(2)c cells [3]": {"system": "SK-N-BE(2)c cells", "assay": "TUNEL apoptosis assay, SK-N-BE(2)c", "type": "cell-based, human", "settings": "40 µM, 48 h, six fields", "procedure": "To measure cell growth, cells were seeded at 3×10^4/ml. After being allowed to attach overnight, cells were treated with various concentrations of the peptides for 72 h. Cell growth was measured by the CellTitor-Glo assay (Promega, Madison, WI) according to manufacturer's instruction. To measure apoptosis, cells were seeded at 1×10^5/ml onto a chamber slide. Once attached, cells were treated with the peptides for 48 h. Cells were fixed and analyzed by a TUNEL assay using the TMR red in situ cell death detection kit (Roche Diagnostics, Indianapolis, IN)."}, "[4]": {"system": "EJ-mediated DSB repair, U2OS-derived EJ5-GFP cells", "assay": "DSB repair reporter assay, EJ (EJ5-GFP)", "type": "cell-based", "settings": "30 µM, GFP-positive cells 3 d after I-SceI transfection, normalized to R9-srbPep, triplicates", "procedure": "(§2) The plasmid pCBASce expresses the rare cutting I-SceI meganuclease. The U2OS-derived cell lines, DR-GFP, EJ5-GFP, and SA-GFP contain a stably transfected reporter gene for DSB repair mediated by HR, end joining (EJ), and single-strand annealing (SSA), respectively. These cell lines were cultured in DMEM medium with 10% FBS at 37°C in the presence of 5% CO2.\n(§3) DR-GFP, EJ5-GFP, and SA-GFP cell lines were seeded at 2.5×10^4 cells/cm^2 in a 12-well plate. Once attached overnight, cells were transfected with 1.2 µg of the pCBASce I-SceI expression plasmid mixed with 3.6 µl of Lipofectamine 2000 (Invitrogen) in 200 µl of Optimem media (Invitrogen). After incubation for 3 h, the media containing transfection complexes was aspirated and replaced with fresh media containing 30 µM of the peptides. The HR, EJ, and SSA-mediated DSB repair, indicated by the restoration of a functional GFP gene in the respective cell lines, were quantified by measuring the relative abundance of GFP-positive cells by flow cytometry 3 d after transfection."}, "[5]": {"system": "Rad51 foci in SK-N-BE(2)c cells", "assay": "Rad51 foci immunofluorescence after γ-irradiation", "type": "cell-based, human", "settings": "2 h peptide pretreatment, 5 Gy", "procedure": "To study DNA damage and repair, attached cells were pretreated with the peptides for 2 h and were then ã-irradiated (5 Gy). After irradiation, cells were cultured in the presence of the peptides for the indicated time. For analyzing ãH2A.X foci formation, cells were fixed in a solution of methanol and acetone (70%:30% v/v) for 15 min at −20°C. The slides were air-dried for storage and rehydrated in PBS prior to immunostaining. Cells were stained by a mouse monoclonal antibody specific to ãH2A.X (Millipore, Billerica, MA) followed by an Alexa Fluor 488 conjugated anti-mouse IgG antibody. For analyzing Rad51 foci formation, cells were fixed in PBS buffered 4% paraformaldehyde at room temperature for 15 min. After being washed twice by PBS, cells were permeabilized in PBS containing 0.5% triton for 15 min on ice. The fixed and permeabilized cells were stained with a rabbit polyclonal antibody raised against the human Rad51 (Santa Cruz) followed by an Alexa Fluor 488 conjugated anti-rabbit IgG antibody. Stained cells were visualized and imaged by a confocal microscope."}, "[6]": {"system": "SSA-mediated DSB repair, U2OS-derived SA-GFP cells", "assay": "DSB repair reporter assay, SSA (SA-GFP)", "type": "cell-based", "settings": "30 µM, GFP-positive cells 3 d after I-SceI transfection, normalized to R9-srbPep, triplicates", "procedure": "as §2, §3"}, "[7]": {"system": "PCNA and LIGI co-localization in SK-N-AS NB cells", "assay": "PCNA/LIGI co-localization, immunofluorescence", "type": "cell-based, human", "settings": "synchronized, 30 µM peptide 6 h after mimosine release", "procedure": "as §1"}, "[8]": {"system": "breast, lung, and pancreatic cancer cell lines", "assay": "Toxicity to breast, lung, and pancreatic cancer cell lines (data not shown)", "type": "cell-based", "settings": "in comparison with non-malignant cell lines of respective tissue origins"}}, "note": "Entries after “also recorded” stand apart in the source; their conditions may differ. Where a SMILES comes first, the peptide text is derived from it. [ ]: non-standard residue; d: D form."}
{"compound": "CC[C@H](C)[C@H](NC(=O)CNC(=O)[C@H](CC(C)C)NC(=O)[C@H](CS)NC(=O)[C@H](CS)NC(=O)[C@@H](CCCNC(=N)N)NC(=O)[C@@H](CCCNC(=N)N)NC(=O)[C@@H](CCCNC(=N)N)NC(=O)[C@@H](CCCNC(=N)N)NC(=O)[C@@H](CCCNC(=N)N)NC(=O)[C@@H](CCCNC(=N)N)NC(=O)[C@@H](CCCNC(=N)N)NC(=O)[C@@H](CCCNC(=N)N)NC(=O)[C@H](N)CCCNC(=N)N)C(=O)N1CCC[C@H]1C(=O)N[C@@H](CCC(=O)O)C(=O)N[C@@H](CCC(N)=O)C(=O)N[C@@H](CCC(=O)O)C(=O)N[C@@H](Cc1ccc(O)cc1)C(=O)O", "note": "[R9-caPep] (H-[dR][dR][dR][dR][dR][dR][dR][dR][dR]CCLGIPEQEY-OH; N-terminus and C-terminus assumed)", "values": [{"measurement": "cell cycle arrest", "setting": "SK-N-BE(2)c cells [1]; NB cells (SK-N-BE(2)c), 48 h, 20 or 40 µM", "value": "caused S-phase arrest in NB cells"}, {"measurement": "apoptosis: sub-G1 cell population", "setting": "SK-N-BE(2)c cells [1]; SK-N-BE(2)c, 40 µM, 48 h", "value": "rise of a sub-G1 cell population"}, {"measurement": "relative abundance of cells in S-phase, longer treatment", "setting": "SK-N-BE(2)c cells [1]; treatment longer than 6 h (Fig. 3c, 48 h)", "value": "increased the relative abundance of cells in S-phase"}, {"measurement": "recruitment of POLD3 to PCNA", "setting": "[2]", "value": "did not seem to affect the recruitment of POLD3 to PCNA"}, {"measurement": "apoptosis: TUNEL positivity", "setting": "SK-N-BE(2)c cells [3]", "value": "increased TUNEL positivity"}, {"measurement": "EJ-mediated DNA repair", "setting": "[4]", "value": "only small effects on EJ or SSA; also recorded: little effect on the EJ pathway"}, {"measurement": "number of Rad51-positive cells at 4 h", "setting": "[5]; 4 h after irradiation", "value": "reduced the number of Rad51-positive cells at 4 h after ã-irradiation"}, {"measurement": "Rad51 background staining at 48 h", "setting": "[5]; 48 h after irradiation", "value": "strong and diffused background staining of Rad51"}, {"measurement": "Rad51 foci at 48 h", "setting": "[5]; 48 h after irradiation", "value": "Rad51 foci remain visible"}, {"measurement": "SSA-mediated DNA repair", "setting": "[6]", "value": "only small effects on EJ or SSA; also recorded: slightly enhances DNA repair through SSA"}, {"measurement": "LIGI co-localization with PCNA foci", "setting": "[7]", "value": "largely blocked"}, {"measurement": "toxicity to breast, lung, and pancreatic cancer cell lines vs non-malignant lines", "setting": "[8]", "value": "selectively toxic to breast, lung, and pancreatic cancer cell lines"}]}
